Data published in the NIST ThermoML archive (doi:10.1021/je049671t).
Numbers after ± are expanded uncertainties.

Assay: xn = mol fraction of the nth substance listed
Conditions: Liquid, Vibrating tube method

In the case of `CC(C)C` [2-methylpropane] + CCC, the mass density (240 K, 398.2 kPa, x2 = 0.25) is reported as 608.19 ± 0.26 kg/m3, the mass density (240 K, 475.1 kPa, x2 = 0.25) is reported as 608.27 ± 0.27 kg/m3 and the mass density (240 K, 529.1 kPa, x2 = 0.75) is reported as 584.35 ± 0.27 kg/m3. It also gave a mass density (240 K, 1000.1 kPa, x2 = 0.25) of 608.87 ± 0.27 kg/m3, a mass density (240 K, 1024.1 kPa, x2 = 0.75) of 584.98 ± 0.28 kg/m3 and a mass density (240 K, 1473.4 kPa, x2 = 0.75) of 585.53 ± 0.28 kg/m3. The mass density (240 K, 1505.9 kPa, x2 = 0.25) was 609.45 ± 0.27 kg/m3, the mass density (240 K, 2000.7 kPa, x2 = 0.75) was 586.19 ± 0.29 kg/m3 and the mass density (240 K, 2004.5 kPa, x2 = 0.25) was 610.02 ± 0.28 kg/m3. The mass density (240 K, 2531.8 kPa, x2 = 0.75) was 586.84 ± 0.29 kg/m3, the mass density (240 K, 2533 kPa, x2 = 0.25) was 610.61 ± 0.28 kg/m3 and the mass density (240 K, 3006.4 kPa, x2 = 0.75) was 587.4 ± 0.3 kg/m3. It also gave a mass density (240 K, 3028.4 kPa, x2 = 0.25) of 611.15 ± 0.29 kg/m3, a mass density (240 K, 3537.9 kPa, x2 = 0.25) of 611.73 ± 0.29 kg/m3 and a mass density (240 K, 3545.4 kPa, x2 = 0.75) of 588.06 ± 0.3 kg/m3. It also gave a mass density (240 K, 4012.9 kPa, x2 = 0.75) of 588.63 ± 0.31 kg/m3, a mass density (240 K, 4027.7 kPa, x2 = 0.25) of 612.28 ± 0.3 kg/m3 and a mass density (240 K, 4515.3 kPa, x2 = 0.75) of 589.21 ± 0.31 kg/m3. For the same molecule, the mass density (240 K, 4519.1 kPa, x2 = 0.25) was 612.81 ± 0.3 kg/m3, the mass density (240 K, 4996.8 kPa, x2 = 0.75) was 589.79 ± 0.32 kg/m3 and the mass density (240 K, 5030.4 kPa, x2 = 0.25) was 613.37 ± 0.31 kg/m3. For the same molecule, the mass density (240 K, 5496.4 kPa, x2 = 0.75) was 590.37 ± 0.32 kg/m3, the mass density (240 K, 5533.4 kPa, x2 = 0.25) was 613.91 ± 0.31 kg/m3 and the mass density (240 K, 6009 kPa, x2 = 0.75) was 590.98 ± 0.33 kg/m3. The mass density (240 K, 6033 kPa, x2 = 0.25) was 614.45 ± 0.32 kg/m3, the mass density (240 K, 6541 kPa, x2 = 0.75) was 591.59 ± 0.33 kg/m3 and the mass density (240 K, 6541.5 kPa, x2 = 0.25) was 615 ± 0.32 kg/m3. The mass density (240 K, 6969.5 kPa, x2 = 0.75) was 592.1 ± 0.34 kg/m3, the mass density (240 K, 6987.7 kPa, x2 = 0.25) was 615.48 ± 0.33 kg/m3 and the mass density (240 K, x2 = 0.25) was 607.81 ± 0.26 kg/m3. The mass density (240 K, x2 = 0.75) was 583.82 ± 0.27 kg/m3, the mass density (250 K, 515.5 kPa, x2 = 0.499) was 584.94 ± 0.27 kg/m3 and the mass density (250 K, 1014.4 kPa, x2 = 0.499) was 585.61 ± 0.28 kg/m3. For the same molecule, the mass density (250 K, 1511.1 kPa, x2 = 0.499) was 586.26 ± 0.28 kg/m3, the mass density (250 K, 2027.5 kPa, x2 = 0.499) was 586.95 ± 0.29 kg/m3 and the mass density (250 K, 2489.8 kPa, x2 = 0.499) was 587.55 ± 0.29 kg/m3. It also gave a mass density (250 K, 3012.9 kPa, x2 = 0.499) of 588.23 ± 0.3 kg/m3, a mass density (250 K, 3492.5 kPa, x2 = 0.499) of 588.84 ± 0.3 kg/m3 and a mass density (250 K, 3995.9 kPa, x2 = 0.499) of 589.47 ± 0.31 kg/m3. For the same molecule, the mass density (250 K, 4532.5 kPa, x2 = 0.499) was 590.12 ± 0.31 kg/m3, the mass density (250 K, 5042.2 kPa, x2 = 0.499) was 590.74 ± 0.32 kg/m3 and the mass density (250 K, 5484.6 kPa, x2 = 0.499) was 591.29 ± 0.32 kg/m3. For the same molecule, the mass density (250 K, 5996.5 kPa, x2 = 0.499) was 591.9 ± 0.33 kg/m3, the mass density (250 K, 6509.5 kPa, x2 = 0.499) was 592.48 ± 0.33 kg/m3 and the mass density (250 K, 6818.8 kPa, x2 = 0.499) was 592.84 ± 0.34 kg/m3. The mass density (250 K, x2 = 0.499) was 584.44 ± 0.27 kg/m3, the mass density (260 K, 251.9 kPa, x2 = 0.75) was 560.57 ± 0.27 kg/m3 and the mass density (260 K, 521.1 kPa, x2 = 0.25) was 586.55 ± 0.27 kg/m3. For the same molecule, the mass density (260 K, 527 kPa, x2 = 0.75) was 561.44 ± 0.28 kg/m3, the mass density (260 K, 990.2 kPa, x2 = 0.25) was 587.2 ± 0.28 kg/m3 and the mass density (260 K, 1026.1 kPa, x2 = 0.75) was 562.22 ± 0.28 kg/m3. It also gave a mass density (260 K, 1481.6 kPa, x2 = 0.25) of 587.88 ± 0.28 kg/m3, a mass density (260 K, 1524.1 kPa, x2 = 0.75) of 563.04 ± 0.29 kg/m3 and a mass density (260 K, 2004.4 kPa, x2 = 0.25) of 588.63 ± 0.29 kg/m3. It also gave a mass density (260 K, 2030.6 kPa, x2 = 0.75) of 563.8 ± 0.29 kg/m3, a mass density (260 K, 2504.8 kPa, x2 = 0.25) of 589.32 ± 0.29 kg/m3 and a mass density (260 K, 2508.8 kPa, x2 = 0.75) of 564.52 ± 0.3 kg/m3. For the same molecule, the mass density (260 K, 2995 kPa, x2 = 0.25) was 589.98 ± 0.3 kg/m3, the mass density (260 K, 3035.5 kPa, x2 = 0.75) was 565.31 ± 0.3 kg/m3 and the mass density (260 K, 3494.1 kPa, x2 = 0.75) was 566 ± 0.31 kg/m3. The mass density (260 K, 3517.2 kPa, x2 = 0.25) was 590.65 ± 0.3 kg/m3, the mass density (260 K, 3986.7 kPa, x2 = 0.25) was 591.2 ± 0.31 kg/m3 and the mass density (260 K, 4039.9 kPa, x2 = 0.75) was 566.81 ± 0.32 kg/m3. It also gave a mass density (260 K, 4476.3 kPa, x2 = 0.25) of 591.87 ± 0.31 kg/m3, a mass density (260 K, 4527.2 kPa, x2 = 0.75) of 567.5 ± 0.32 kg/m3 and a mass density (260 K, 4968.6 kPa, x2 = 0.75) of 568.07 ± 0.33 kg/m3. It also gave a mass density (260 K, 4976.3 kPa, x2 = 0.25) of 592.53 ± 0.32 kg/m3, a mass density (260 K, 5537.1 kPa, x2 = 0.75) of 568.72 ± 0.33 kg/m3 and a mass density (260 K, 5550.8 kPa, x2 = 0.25) of 593.3 ± 0.32 kg/m3. It also gave a mass density (260 K, 6051.9 kPa, x2 = 0.25) of 593.96 ± 0.33 kg/m3, a mass density (260 K, 6474.3 kPa, x2 = 0.25) of 594.47 ± 0.33 kg/m3 and a mass density (260 K, 6513.6 kPa, x2 = 0.75) of 570.1 ± 0.34 kg/m3. The mass density (260 K, 6922.9 kPa, x2 = 0.75) was 570.57 ± 0.35 kg/m3.
